Data as given in patent US10137171B2, “Methods of treatment using a pentapeptide derived from the C-Terminus of Glucagon-Like Peptide 1 (GLP-1)” (The General Hospital Corporation, priority 2011, dated 2018).
Entries after “also recorded” stand apart in the source; their conditions may differ. Where no end group is shown, it is not given here.

Columns and labels:
diet-induced obese mice [1] = assay: Liver triglyceride content; format: in vivo, mouse
Procedure: FIGS. 6A-B are bar graphs showing that infusions of GLP-1(32-36)amide in mice prevent the accumulation of triglyceride in the livers of mice fed a very high-diet (VHFD). Triglyceride contents of samples of livers of mice fed a high-fat diet (VHFD) for 32 weeks (age 38 weeks). 6A. Triglyceride levels of pentapeptide-infused obese mice as a percent of the vehicle-infused control mice set at 100%. *p<0.005. 6B. Triglyceride content levels of 60.5+/−12.1 mg/mg protein. Infusion of the pentapeptide lowered the triglyceride content by 65% to 21.1+/−5.6 mg/mg protein, indistinguishable from the values in the livers of lean mice fed low-fat chow (21.6+/−7 mg/mg protein). Data from diet-induced obese mice infused with the nonapeptide, GLP-1(28-36)amide for 16 weeks are also shown. Values are represented as % of vehicle control infused mice fed a high-fat diet (VHFD). *p<0.005, peptide vs. vehicle. N=6 mice per group. Values are means+/−SEMs.
Representative samples (2-3 gms) of livers were obtained and quick frozen on solid CO2 at the time of sacrifice and necropsy. The samples were subsequently homogenized and triglycerides were extracted and measured using a colorimetric enzymatic assay (Serum Triglyceride Determination kit, Sigma).

diet-induced obese mice [2] = assay: Plasma circulating glycerol and triglyceride (FIG. 6C); format: in vivo, mouse; conditions: 16 weeks continuous infusion, 60% fat diet 24 weeks (FIG. 6C)
Description: FIG. 6C is a table showing continuous infusion of GLP-1(32-36)amide for 16-weeks improves plasma circulating levels of glycerol and triglyceride in mice fed on a 60% fat diet (VHFD) for 24-weeks. *p<0.02, peptide vs. vehicle; **p<0.008 peptide vs. vehicle.

[3] = system: insulin-resistant isolated mouse hepatocytes; assay: Glucose production assay in isolated hepatocytes; format: cell-based; conditions: stimulated by cAMP/dexamethasone/lactate; basal glucose production not suppressed
Description: FIG. 8 is a bar graph showing suppression of glucose production by the pentapeptide GLP-1(32-36)amide (LVKGRamide (SEQ ID NO:1)) in insulin-resistant hepatocytes. Mice (male, C57bl/6) from 12-19 weeks of age were fasted overnight (16 hrs) and primary hepatocytes were isolated using a collagen and perfusion gradient purification. Cells were first seeded using a Dulbecco's modified Eagle's medium (DMEM) supplemented with 10% FBS, 1 g/L glucose, 2 mmol/1 sodium pyruvate, 1 micromol/L dexamethasone, and 0.1 micromol/L insulin, and later maintained in DMEM with 0.2% BSA, 1 g/L glucose, 0.1 micromol/L dexamethasone, and lnmol/L insulin. […] The readings were then normalized to total protein content determined from whole-cell lysates. […]
Primary hepatocytes (2×10^5 cells per well in twelve-well plates) were pre-treated with GLP-1(32-36)amide for 1 hour followed by the stimulation of insulin resistance by the addition of cAMP (10 microM)/dexamethasone ([…])/sodium lactate (2 mM) in glucose-free DMEM without phenol red. […] The readings were then normalized to total protein content determined from whole-cell lysates.

H4IIe hepatoma cells = assay: ROS formation assay (H4IIe hepatoma cells); format: cell-based; conditions: 0.2 mM palmitate 24 hr, 100 pM peptide (FIG. 9B)
Procedure: FIG. 9B is a bar graph showing inhibition of the production of ROS in H4IIe hepatoma cells. BSA n=14. palmitate n=13. 32-36/palmitate n=12. *p<0.005 palmitate vs BSA, # p<0.03 palmitate vs GLP-1(32-36)a/palmitate
H4IIe cells were seeded in 12-well plates at a density of 1×10^4/well and incubated overnight in media containing 5.0 mM glucose. Media was then supplemented with 0.20 mM palmitate in BSA, with and without 100 pM GLP-1(32-36)amide and incubated for an additional 24 h. Intracellular ROS was measured by 5-(and 6)-carboxy-2′,7′-dichlorohydro-fluorescein diacetate (CM-H2DCFDA) (Molecular Probes) as follows. Cells were washed twice in HBSS (Hanks' Balance Salt Solution) and incubated with 10 uM CM-H2DCFDA for 45 minutes. The media were removed and cells were lysed. ROS was measured in the cell lysates using a spectrofluorometer (485 nm/535 nm). Data were normalized to values obtained from the cells treated with palmitate. BSA n=14. Palmitate n=13. 32-36/Palmitate n=12.

## LVKGRamide (LVKGR-NH2) [GLP-1(32-36)amide, pentapeptide derived from the C-terminus of the glucoincretin hormone GLP-1]
diet-induced obese mice [1]; VHFD mice (FIG. 6A)
  liver triglyceride as percent of vehicle control set at 100%: 35%
diet-induced obese mice [1]; VHFD mice, pentapeptide infusion (FIG. 6A, 6B)
  liver triglyceride content decrease compared to vehicle: 65%
diet-induced obese mice [1]; VHFD mice, vehicle 60.5+/-12.1, lean low-fat diet mice 21.6+/-7 (FIG. 6B)
  liver triglyceride content: 21.1+/−5.6 mg/mg protein
diet-induced obese mice [2]
  plasma circulating levels of glycerol and triglyceride: improves; also recorded: lowered
[3]
  glucose production (formation): suppression
H4IIe hepatoma cells
  ROS production: nearly completely normalizes
H4IIe hepatoma cells; listed as GLP-1(32-36)a
  ROS production: inhibition
